Data as given in PubChem BioAssay (NCI).
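Five concentrations, 48 hours, 96-well plates. TGI is the concentration that stops growth completely.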

Assays:
Assay in all cases: inhibition of tumour cell growth, NCI panel, 48 h
[1] = tested on: MDA-MB-231 breast
[2] = tested on: OVCAR-5 ovarian
[3] = tested on: HCT-116 colon
[4] = tested on: HOP-62 NSCLC
[5] = tested on: A549 NSCLC
[6] = tested on: SK-MEL-28 melanoma
[7] = tested on: TK-10 renal
[8] = tested on: NCI-H226 lung
[9] = tested on: UACC-257 melanoma
[10] = tested on: SN12C renal
[11] = tested on: ACHN renal
[12] = tested on: MOLT-4 leukemia
[13] = tested on: SF-539 CNS
[14] = tested on: SW-620 colon
[15] = tested on: SK-MEL-2 melanoma
[16] = tested on: LOX IMVI melanoma
[17] = tested on: CAKI-1 renal
[18] = tested on: OVCAR-8 ovarian
[19] = tested on: SK-OV-3 ovarian
[20] = tested on: SNB-75 CNS
[21] = tested on: HCC-2998 colon
[22] = tested on: T-47D breast
[23] = tested on: MALME-3M melanoma
[24] = tested on: BT-549 breast
[25] = tested on: SF-268 CNS
[26] = tested on: SNB-19 CNS
[27] = tested on: NCI/ADR-RES ovarian
[28] = tested on: DU-145 prostate
[29] = tested on: RXF 393 renal
[30] = tested on: KM12 colon
[31] = tested on: OVCAR-4 ovarian
[32] = tested on: MDA-N
[33] = tested on: HL-60(TB) leukemia
[34] = tested on: UO-31 renal
[35] = tested on: NCI-H522 lung
[36] = tested on: HT29 colon
[37] = tested on: 786-0 renal
[38] = tested on: OVCAR-3 ovarian
[39] = tested on: MDA-MB-435
[40] = tested on: COLO 205 colon
[41] = tested on: UACC-62 melanoma
[42] = tested on: RPMI-8226 leukemia
[43] = tested on: IGROV1 ovarian
[44] = tested on: SK-MEL-5 melanoma
[45] = tested on: NCI-H23 lung
[46] = tested on: K-562 leukemia
[47] = tested on: U251 CNS
[48] = tested on: MCF7 breast
[49] = tested on: PC-3 prostate
[50] = tested on: HCT-15 colon
[51] = tested on: NCI-H460 lung
[52] = tested on: SF-295 CNS
[53] = tested on: CCRF-CEM leukemia
[54] = tested on: EKVX NSCLC
[55] = tested on: HS 578T breast
[56] = tested on: SR leukemia
[57] = tested on: M14 melanoma

How did the TGI [1] turn out when `O=[N+]([O-])c1ccc(N2N=C(c3ccc4ccccc4c3O)CC2c2ccc(Cl)cc2Cl)c([N+](=O)[O-])c1` (centres undefined) was run?
The TGI was > 100 µM.

And the TGI [2]?
The TGI was > 100 µM.

What about the TGI [3] of the same molecule?
The TGI was > 100 µM.

And the TGI [4]?
Its TGI is > 100 µM.

And the TGI [5]?
The TGI was > 100 µM.

And the TGI [6]?
The TGI was > 100 µM.

What about the TGI [7] of the same molecule?
The TGI was > 100 µM.

And the TGI [8]?
Its TGI is > 100 µM.

And the TGI [9]?
The TGI was > 100 µM.

What about the TGI [10] of the same molecule?
Its TGI is > 100 µM.

What about the TGI [11] of the same molecule?
The TGI was > 100 µM.

And the TGI [12]?
The TGI was 38 µM.

What about the TGI [13] of the same molecule?
The TGI was 70.6 µM.

And the TGI [14]?
The TGI was > 100 µM.

What about the TGI [15] of the same molecule?
The TGI was > 100 µM.

And the TGI [16]?
The TGI was > 100 µM.

What about the TGI [17] of the same molecule?
The TGI was > 100 µM.

What about the TGI [18] of the same molecule?
Its TGI is > 100 µM.

And the TGI [19]?
The TGI was > 100 µM.

What about the TGI [20] of the same molecule?
Its TGI is > 100 µM.

What about the TGI [21] of the same molecule?
Its TGI is > 100 µM.

And the TGI [22]?
Its TGI is > 100 µM.

And the TGI [23]?
The TGI was > 100 µM.

What about the TGI [24] of the same molecule?
The TGI was > 100 µM.

And the TGI [25]?
Its TGI is > 100 µM.

And the TGI [26]?
The TGI was > 100 µM.

And the TGI [27]?
Its TGI is > 100 µM.

What about the TGI [28] of the same molecule?
Its TGI is > 100 µM.

And the TGI [29]?
The TGI was > 100 µM.

And the TGI [30]?
Its TGI is > 100 µM.

What about the TGI [31] of the same molecule?
The TGI was > 100 µM.

What about the TGI [32] of the same molecule?
Its TGI is > 100 µM.

What about the TGI [33] of the same molecule?
Its TGI is 77.4 µM.

And the TGI [34]?
The TGI was > 100 µM.

And the TGI [35]?
The TGI was > 100 µM.

What about the TGI [36] of the same molecule?
The TGI was > 100 µM.

And the TGI [37]?
The TGI was > 100 µM.

What about the TGI [38] of the same molecule?
The TGI was > 100 µM.

What about the TGI [39] of the same molecule?
The TGI was > 100 µM.

And the TGI [40]?
Its TGI is > 100 µM.

And the TGI [41]?
The TGI was > 100 µM.

And the TGI [42]?
Its TGI is 41.4 µM.

And the TGI [43]?
The TGI was > 100 µM.

What about the TGI [44] of the same molecule?
The TGI was > 100 µM.

And the TGI [45]?
Its TGI is > 100 µM.

What about the TGI [46] of the same molecule?
Its TGI is 35.5 µM.

What about the TGI [47] of the same molecule?
Its TGI is > 100 µM.

What about the TGI [48] of the same molecule?
The TGI was > 100 µM.

What about the TGI [49] of the same molecule?
The TGI was > 100 µM.

And the TGI [50]?
The TGI was > 100 µM.

What about the TGI [51] of the same molecule?
Its TGI is > 100 µM.

What about the TGI [52] of the same molecule?
The TGI was > 100 µM.

And the TGI [53]?
Its TGI is 35.5 µM.

And the TGI [54]?
The TGI was > 100 µM.

And the TGI [55]?
Its TGI is 95.3 µM.

Which results are given for `COC(=O)CNC(=O)Nc1cc(N2C(=O)ON3C2C(C)(C)N(O)C3(C)C)ccc1C` (centres undefined)?
TGI [1]: > 100 µM; TGI [2]: > 100 µM; TGI [3]: > 100 µM; TGI [4]: > 100 µM; TGI [5]: > 100 µM; TGI [6]: > 100 µM; TGI [7]: > 100 µM; TGI [8]: > 100 µM; TGI [9]: > 100 µM; TGI [10]: > 100 µM; TGI [11]: > 100 µM; TGI [12]: > 100 µM; TGI [13]: > 100 µM; TGI [14]: > 100 µM; TGI [15]: > 100 µM; TGI [16]: > 100 µM; TGI [17]: > 100 µM; TGI [18]: > 100 µM; TGI [19]: > 100 µM; TGI [20]: > 100 µM; TGI [21]: > 100 µM; TGI [22]: > 100 µM; TGI [23]: > 100 µM; TGI [24]: > 100 µM; TGI [25]: > 100 µM; TGI [26]: > 100 µM; TGI [27]: > 100 µM; TGI [29]: > 100 µM; TGI [30]: > 100 µM; TGI [31]: > 100 µM; TGI [32]: > 100 µM; TGI [34]: > 100 µM; TGI [56]: > 100 µM; TGI [35]: > 100 µM; TGI [36]: > 100 µM; TGI [37]: > 100 µM; TGI [57]: > 100 µM; TGI [38]: > 100 µM; TGI [39]: > 100 µM; TGI [40]: > 100 µM; TGI [41]: > 100 µM; TGI [43]: > 100 µM; TGI [44]: > 100 µM; TGI [45]: > 100 µM; TGI [46]: > 100 µM; TGI [47]: > 100 µM; TGI [48]: > 100 µM; TGI [49]: > 100 µM; TGI [50]: > 100 µM; TGI [51]: > 100 µM; TGI [52]: > 100 µM; TGI [53]: > 100 µM; TGI [54]: > 100 µM; TGI [55]: > 100 µM
